Source: patent publication US12378186B2, “Inhibitors of meprin α and β” (VIVORYON THERAPEUTICS N.V., priority 2016, dated 2025)
Where two headings read alike, the source gives them in different places.

Tests used:
hMeprin β = biological target: T1, hMeprin β (Homo sapiens, UniProt Q16820); assay: Enzymatic assay, cleavage of internally quenched peptide substrate, hMeprin β; format: biochemical
T1 sequence (Q16820 62-701): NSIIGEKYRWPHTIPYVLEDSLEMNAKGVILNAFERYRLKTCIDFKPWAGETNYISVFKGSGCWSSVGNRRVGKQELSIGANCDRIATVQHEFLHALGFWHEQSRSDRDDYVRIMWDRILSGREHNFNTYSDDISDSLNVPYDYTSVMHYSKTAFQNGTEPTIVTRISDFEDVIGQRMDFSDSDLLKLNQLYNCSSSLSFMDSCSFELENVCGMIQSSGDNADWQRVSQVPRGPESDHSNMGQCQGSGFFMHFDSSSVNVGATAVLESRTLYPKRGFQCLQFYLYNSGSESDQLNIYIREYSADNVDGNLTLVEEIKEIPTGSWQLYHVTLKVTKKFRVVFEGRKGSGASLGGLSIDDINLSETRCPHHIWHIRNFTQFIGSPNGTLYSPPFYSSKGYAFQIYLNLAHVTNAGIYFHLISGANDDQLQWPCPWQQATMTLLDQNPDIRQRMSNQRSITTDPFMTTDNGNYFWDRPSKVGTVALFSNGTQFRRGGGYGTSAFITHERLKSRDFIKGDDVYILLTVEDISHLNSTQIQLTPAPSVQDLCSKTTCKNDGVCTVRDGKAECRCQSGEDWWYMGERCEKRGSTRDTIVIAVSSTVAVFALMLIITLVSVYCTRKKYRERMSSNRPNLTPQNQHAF
Experimental: (§1) A typical assay of 250 μl total volume measured in black 96 well plates consisted of 100 μl buffer, 50 μl enzyme at a final concentration of 5e-8 M to 5e-9 M, 50 μl substrate (0.15 to 80 μM, in buffer, 0.5% DMSO) and 50 μl inhibitor solution (in buffer, 1% DMSO). In case of 125 μl assay volume (black 96 half area well plates) all volumes were cut in half. Enzymatic activity of ADAMs was measured in 384 well plates with 60 μl total assay volume consisting of 20 μl inhibitor, 20 μl buffer, 10 μl enzyme and 10 μl substrate.
(§2) Ki values were assessed combining 4 substrate concentrations (5-40 μM) with at least 5 inhibitor concentrations. […] Initial velocities were determined and converted into concentration units applying a standard curve obtained after complete conversion of different substrate concentrations under assay conditions. All measurements were performed using a fluorescence plate reader (FLUOstar OPTIMA, BMG Labtech) at 30° C. The kinetic parameters were determined at least in duplicates on separate days. The excitation/emission wavelength was 340/420 nm. The kinetic data was evaluated using GraFit software (version 7.0.3, Erithacus Software).
(§3) The following compounds according to the present invention were synthesized using the above general procedures. IC50 refers to the average IC50 values measured as described above, SD (IC50) refers to the standard deviation of the average IC50 values, Ki refers to the average K; values measured as described above, and SD (Ki) to the standard deviation of the average Ki values.

hMeprin α = biological target: T2, hMeprin α (Homo sapiens, UniProt Q16819); assay: biochemical; format: biochemical
T2 sequence (Q16819 66-746): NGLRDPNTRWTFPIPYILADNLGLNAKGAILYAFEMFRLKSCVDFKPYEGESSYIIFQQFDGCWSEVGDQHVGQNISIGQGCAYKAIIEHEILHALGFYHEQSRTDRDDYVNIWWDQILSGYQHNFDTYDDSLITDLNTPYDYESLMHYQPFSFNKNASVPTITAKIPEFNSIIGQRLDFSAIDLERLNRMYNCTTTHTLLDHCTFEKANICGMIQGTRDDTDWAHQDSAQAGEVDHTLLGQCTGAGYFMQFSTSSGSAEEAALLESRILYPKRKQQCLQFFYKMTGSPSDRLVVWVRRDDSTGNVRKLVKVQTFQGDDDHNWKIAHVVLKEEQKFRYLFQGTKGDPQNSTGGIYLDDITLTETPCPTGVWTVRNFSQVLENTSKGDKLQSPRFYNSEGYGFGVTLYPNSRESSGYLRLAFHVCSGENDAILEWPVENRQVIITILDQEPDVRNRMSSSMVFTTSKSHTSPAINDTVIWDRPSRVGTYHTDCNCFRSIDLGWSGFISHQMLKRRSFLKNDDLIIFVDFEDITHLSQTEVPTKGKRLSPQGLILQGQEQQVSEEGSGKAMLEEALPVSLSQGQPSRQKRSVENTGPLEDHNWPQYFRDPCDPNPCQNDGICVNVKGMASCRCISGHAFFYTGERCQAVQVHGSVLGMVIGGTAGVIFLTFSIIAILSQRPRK
Experimental: as §1, §2, §3

[1] = average IC50, 10 μM substrate, 30° C., 40 mM Tris pH 8.0, read-out: Meprin Beta IC50
[2] = average IC50, 10 μM substrate, 30° C., 40 mM HEPES pH 7.4, read-out: Meprin Alpha IC50
[3] = average Ki, 4 substrate concentrations (5-40 μM), 30° C., 40 mM HEPES pH 7.4, read-out: Meprin Alpha Ki

SMILES: COc1ccc(CN(CCCC(=O)NO)Cc2cccc(C(=O)O)c2)cc1 [Example 38, 3-[[[4-(hydroxyamino)-4-oxo-butyl]-[(4-methoxyphenyl)methyl]amino]-methyl]benzoic acid]
- Ki (hMeprin β): 225 nM
- IC50 (hMeprin β; [1]): 742 nM
- IC50 (hMeprin α; [2]): 2610 nM
- Ki (hMeprin α; [3]): 948 nM

SMILES: O=C(O)c1cccc(CN[C@@H](Cc2ccccc2)C(=O)NO)c1 [Example 30, 3-[[[(1S)-1-Benzyl-2-(hydroxyamino)-2-oxo-ethyl]amino]methyl]benzoic acid]
- IC50 (hMeprin β; [1]): 15500 nM
- IC50 (hMeprin α; [2]): 10200 nM

SMILES: O=C(CN(Cc1c(F)ccc(O)c1F)Cc1c(F)ccc(O)c1F)NO [Example 49, 2-[bis[(2,6-difluoro-3-hydroxy-phenyl)methyl]-amino]ethanehydroxamic acid]
- Ki (hMeprin β): 1960 nM
- IC50 (hMeprin β; [1]): 5520 nM
- IC50 (hMeprin α): 5600 nM
- Ki (hMeprin α): 998 nM

SMILES: O=C(CN(Cc1ccc(Cl)c(O)c1F)Cc1ccc(Cl)c(O)c1F)NO [Example 52, 2-[bis[(4-chloro-2-fluoro-3-hydroxy-phenyl)-methyl]amino]ethanehydroxamic acid]
- Ki (hMeprin β): 8 nM
- Ki (hMeprin α; [3]): 104 nM

SMILES: CC(C)[C@@H](NCc1cccc(C(=O)O)c1)C(=O)NO [Example 34, 3-[[[(1R)-1-(Hydroxycarbamoyl)-2-methyl-propyl]amino]methyl]benzoic acid]
- IC50 (hMeprin β; [1]): 11800 nM
- IC50 (hMeprin α; [2]): 30000 nM

SMILES: N#Cc1cccc(CN(CCC(=O)NO)Cc2cccc(C#N)c2)c1 [Example 70, 3-[bis[(3-cyanophenyl)methyl]amino]-propanehydroxamic acid]
- IC50 (hMeprin β): 33100 nM
- IC50 (hMeprin α; [2]): 2340 nM
- Ki (hMeprin α; [3]): 696 nM

SMILES: O=C(CN(Cc1cccc(OC(F)F)c1)Cc1cccc(OC(F)F)c1)NO [Example 72]
- IC50 (hMeprin β; [1]): 57000 nM
- IC50 (hMeprin α; [2]): 5680 nM
- Ki (hMeprin α; [3]): 2150 nM

SMILES: O=C(CN(Cc1ccc2c(c1)OCCO2)Cc1ccc2c(c1)OCCO2)NO [Example 63, 2-[bis(2,3-dihydro-1,4-benzodioxin-6-yl-methyl)amino]ethanehydroxamic acid]
- IC50 (hMeprin β): 30600 nM
- IC50 (hMeprin α; [2]): 1520 nM
- Ki (hMeprin α; [3]): 297 nM

SMILES: CC(C)(NCc1cccc(C(=O)O)c1)C(=O)NO [Example 32, 3-[[[2-(Hydroxyamino)-1,1-dimethyl-2-oxo-ethyl]amino]methyl]benzoic acid]
- IC50 (hMeprin β): 39300 nM
- IC50 (hMeprin α; [2]): 265000 nM

SMILES: COc1ccc(CN(CC(=O)NO)Cc2ccc3c(c2)OCO3)cc1 [Example 23]
- IC50 (hMeprin β): 20000 nM
- IC50 (hMeprin α; [2]): 1680 nM

SMILES: COc1ccc(CN(CCC(=O)NO)Cc2cccc(C(=O)O)c2)cc1 [Example 31, 3-[[[3-(Hydroxyamino)-3-oxo-propyl]-[(4-methoxyphenyl)methyl]amino]-methyl]benzoic acid]
- Ki (hMeprin β): 165 nM
- IC50 (hMeprin β; [1]): 643 nM
- IC50 (hMeprin α; [2]): 233 nM
- Ki (hMeprin α; [3]): 87 nM

SMILES: O=C(O)C[C@@H](NCc1cccc(C(=O)O)c1)C(=O)NO [Example 46, 3-[[[(1R)-1-(carboxymethyl)-2-(hydroxyamino)-2-oxo-ethyl]amino]methyl]benzoic acid]
- Ki (hMeprin β): 254 nM
- IC50 (hMeprin β; [1]): 548 nM
- IC50 (hMeprin α; [2]): 15100 nM

SMILES: COc1ccc(CN(CC(=O)NO)Cc2ccc(F)c(O)c2F)cc1 [Example 53, 2-[(2,4-difluoro-3-hydroxy-phenyl)methyl-[(4-methoxyphenyl)methyl]amino]ethanehydroxamic acid]
- IC50 (hMeprin β): 331 nM
- Ki (hMeprin β): 158 nM
- IC50 (hMeprin α; [2]): 995 nM
- Ki (hMeprin α; [3]): 328 nM

SMILES: O=C(CN(Cc1ccc2c(c1)OCO2)Cc1ccc2c(c1)OCO2)NO [Example 4, 2-[bis(1,3-Benzodioxol-5-ylmethyl)amino]-ethanehydroxamic acid]
- IC50 (hMeprin β): 5360 nM
- Ki (hMeprin β): 6560 nM
- IC50 (hMeprin α; [2]): 830 nM
- Ki (hMeprin α; [3]): 274 nM

SMILES: O=C(CN(Cc1cccc(C(=O)O)c1)Cc1ccc2c(c1)OCO2)NO [Example 22, 3-[[1,3-Benzodioxol-5-ylmethyl-[2-(hydroxy-amino)-2-oxo-ethyl]amino]-methyl]benzoic acid]
- Ki (hMeprin β): 105 nM
- IC50 (hMeprin α; [2]): 1430 nM
- Ki (hMeprin α; [3]): 606 nM

SMILES: COC(=O)c1cccc(CN(CC(=O)NO)Cc2cccc(C(N)=O)c2)c1 [Example 42]
- IC50 (hMeprin β): 25000 nM
- IC50 (hMeprin α; [2]): 3540 nM
- Ki (hMeprin α; [3]): 1190 nM

SMILES: O=C(O)CC[C@@H](NCc1cccc(C(=O)O)c1)C(=O)NO [Example 44, 3-[[[(1R)-3-carboxy-1-(hydroxycarbamoyl)-propyl]amino]methyl]benzoic acid]
- Ki (hMeprin β): 277 nM
- IC50 (hMeprin β; [1]): 768 nM
- IC50 (hMeprin α; [2]): 32100 nM

SMILES: O=C(CCN(Cc1ccc2c(c1)OCCO2)Cc1ccc2c(c1)OCCO2)NO [Example 69, 3-[bis(2,3-dihydro-1,4-benzodioxin-6-ylmethyl)amino]propanehydroxamic acid]
- IC50 (hMeprin β): 7590 nM
- Ki (hMeprin β): 3740 nM
- IC50 (hMeprin α; [2]): 400 nM
- Ki (hMeprin α; [3]): 117 nM

SMILES: COc1c(F)ccc(CN(CCC(=O)NO)Cc2ccc(F)c(OC)c2F)c1F [Example 64, 3-[bis[(2,4-difluoro-3-methoxy-phenyl)methyl]-amino]propanehydroxamic acid]
- IC50 (hMeprin β): 18700 nM
- IC50 (hMeprin α; [2]): 881 nM
- Ki (hMeprin α; [3]): 332 nM

SMILES: COc1cc(CN(CC(=O)NO)Cc2cc(OC)c3c(c2)OCO3)cc2c1OCO2 [Example 68, 2-[bis[(7-methoxy-1,3-benzodioxol-5-yl)methyl]amino]ethanehydroxamic acid]
- IC50 (hMeprin β): 4570 nM
- Ki (hMeprin β): 1820 nM
- IC50 (hMeprin α; [2]): 554 nM
- Ki (hMeprin α; [3]): 164 nM

SMILES: NC(=O)c1cccc(CN(CC(=O)NO)Cc2cccc(C(N)=O)c2)c1 [Example 41, 3-[[(3-carbamoylphenyl)methyl-[2-(hydroxyamino)-2-oxo-ethyl]amino]methyl]benzamide]
- IC50 (hMeprin β; [1]): 13100 nM
- IC50 (hMeprin α; [2]): 2900 nM
- Ki (hMeprin α; [3]): 852 nM

SMILES: N#Cc1ccc(CN(CC(=O)NO)Cc2cccc(C(=O)O)c2)cc1 [Example 19, 3-[[(4-Cyanophenyl)methyl-[2-(hydroxyamino)-2-oxo-ethyl]amino]methyl]benzoic acid]
- Ki (hMeprin β): 125 nM
- IC50 (hMeprin β; [1]): 320 nM
- IC50 (hMeprin α; [2]): 4880 nM
- Ki (hMeprin α; [3]): 1950 nM

SMILES: C[C@@H](NCc1cccc(C(=O)O)c1)C(=O)NO [Example 33, 3-{[[(1R)-2-(Hydroxyamino)-1-methyl-2-oxo-ethyl]amino]methyl]benzoic acid]
- Ki (hMeprin β): 2580 nM
- IC50 (hMeprin β; [1]): 4260 nM
- IC50 (hMeprin α; [2]): 45100 nM

SMILES: N#Cc1cccc(CN(CC(=O)NO)Cc2cccc(C#N)c2)c1 [Example 40, 2-[bis[(3-cyanophenyl)methyl]amino]-ethanehydroxamic acid]
- IC50 (hMeprin β; [1]): 12000 nM
- IC50 (hMeprin α; [2]): 1460 nM
- Ki (hMeprin α; [3]): 521 nM

SMILES: O=C(CN(Cc1ccc(Cl)cc1)Cc1cccc(C(=O)O)c1)NO [Example 20, 3-[[(4-Chlorophenyl)methyl-[2-(hydroxyamino)-2-oxo-ethyl]amino]methyl]benzoic acid]
- Ki (hMeprin β): 33 nM
- IC50 (hMeprin β; [1]): 76 nM
- IC50 (hMeprin α; [2]): 1800 nM
- Ki (hMeprin α; [3]): 796 nM

SMILES: O=C(CN(Cc1ccc(F)c(O)c1)Cc1ccc(F)c(O)c1)NO [Example 50, 2-[bis[(4-fluoro-3-hydroxy-phenyl)methyl]-amino]ethanehydroxamic acid]
- Ki (hMeprin β): 352 nM
- IC50 (hMeprin β; [1]): 1060 nM
- IC50 (hMeprin α; [2]): 986 nM
- Ki (hMeprin α; [3]): 306 nM
